Laboratory results taken from US9187467B2, “2-phenyl benzothiazole linked imidazole compounds as potential anticancer agents and process for the preparation thereof” (Council of Scientific and Industrial Research, priority 2012, dated 2015).

How the values were obtained:
PC-3 = experiment: SRB anticancer assay, prostate; assay type: cell-based, human; design: Log10GI50: unit not given here
OVCAR-5 = experiment: SRB anticancer assay, ovarian; assay type: cell-based, human; settings: Homo sapiens, OVCAR-5, 48 h
[1] = tested on: MCF-7 (Breast carcinoma) cells; experiment: Cell cycle distribution by flow cytometry (FACS); assay type: cell-based; settings: MCF-7 cells, 2 μM, 24h
Description: FIG. 1 represents FACS analysis of cell cycle distribution of MCF-7 cells after treatment with compounds CA-4, 21a, 21d, 4c, 6d, 6e, 6f, 7d, 7h and 7j at 2 μM concentration for 24h and control cells are the cells treated with DMSO (0.25%).
(§1) In order to investigate the mechanism underlying the anti-proliferative effect of the compounds the cell cycle distribution was analyzed in K562 (Leukemia) and MCF-7 (Breast carcinoma) cell lines by flow cytometry. Compounds CA-4, 21a, 21d, 4c, 6d, 6e, 6f, 7d, 7h and 7j have shown 1.72%, 14%, 12%, 14%, 12%, 14%, 14%, 16%, 16% &12% in K562 cells and 49.63%, 21%, 20%, 18%, 21%, 21%, 21%, 24%, 23% and 23% in MCF-7 cell line respectively. […] Thus compound 7d was considered for further studies (FIG. 1).

HS 578T = experiment: SRB anticancer assay, breast; assay type: cell-based, human; settings: Homo sapiens, 48 h
UACC-62 = experiment: SRB anticancer assay, melanoma; assay type: cell-based, human; settings: for GI50: Homo sapiens, UACC-62, 48 h
OVCAR-8 = experiment: SRB anticancer assay, ovarian; assay type: cell-based, human; design: Log10GI50: unit not given here; settings: for GI50: Homo sapiens, OVCAR-8, 48 h
SR = experiment: SRB anticancer assay, leukemia; assay type: cell-based, human; settings: Homo sapiens, 48 h
SN12C = experiment: SRB anticancer assay, renal; assay type: cell-based, human; design: Log10GI50: unit not given here; settings: for GI50: Homo sapiens, 48 h
ACHN = experiment: SRB anticancer assay, renal; assay type: cell-based, human; design: Log10GI50: unit not given here; settings: for GI50: Homo sapiens, 48 h
SNB-19 = experiment: SRB anticancer assay, CNS; assay type: cell-based, human; design: Log10GI50: unit not given here; settings: for GI50: Homo sapiens, SNB-19, 48 h
SK-MEL-28 = experiment: SRB anticancer assay, melanoma; assay type: cell-based, human; design: Log10GI50: unit not given here; settings: for GI50: Homo sapiens, SK-MEL-28, 48 h
NCI-H322M = experiment: SRB anticancer assay, non-small lung; assay type: cell-based, human; settings: Homo sapiens, 48 h
SNB-75 = experiment: SRB anticancer assay, CNS; assay type: cell-based, human; design: Log10GI50: unit not given here; settings: for GI50: Homo sapiens, SNB-75, 48 h
U251 = experiment: SRB anticancer assay, CNS; assay type: cell-based, human; design: Log10GI50: unit not given here
NCI-H460 = experiment: SRB anticancer assay, non-small lung; assay type: cell-based, human; settings: Homo sapiens, NCI-H460, 48 h
BT-549 = experiment: SRB anticancer assay, breast; assay type: cell-based, human; design: Log10GI50: unit not given here; settings: for GI50: Homo sapiens, BT-549, 48 h
RXF 393 = experiment: SRB anticancer assay, renal; assay type: cell-based, human; design: Log10GI50: unit not given here; settings: for GI50: Homo sapiens, RXF 393, 48 h
SF-539 = experiment: SRB anticancer assay, CNS; assay type: cell-based, human; design: Log10GI50: unit not given here; settings: for GI50: Homo sapiens, SF-539, 48 h
IGROV1 = experiment: SRB anticancer assay, ovarian; assay type: cell-based, human; settings: Homo sapiens, IGROV-1; IGROV1, 48 h
UACC-257 = experiment: SRB anticancer assay, melanoma; assay type: cell-based, human; settings: for GI50: Homo sapiens, UACC-257, 48 h
K-562 = experiment: SRB anticancer assay, leukemia; assay type: cell-based, human; design: Log10GI50: unit not given here; settings: for GI50: Homo sapiens, K562, K-562, 48 h
SK-MEL-2 = experiment: SRB anticancer assay, melanoma; assay type: cell-based, human; settings: for GI50: Homo sapiens, SK-MEL-2, 48 h
HL-60 (TB) = experiment: SRB anticancer assay, leukemia; assay type: cell-based, human; design: Log10GI50: unit not given here
KM12 = experiment: SRB anticancer assay, colon; assay type: cell-based, human; settings: Homo sapiens, KM12, 48 h
CCRF-CEM = experiment: SRB anticancer assay, leukemia; assay type: cell-based, human; design: Log10GI50: unit not given here
NCI-H522 = experiment: SRB anticancer assay, non-small lung; assay type: cell-based, human; design: Log10GI50: unit not given here; settings: for GI50: Homo sapiens, NCI-H522, 48 h
K562 (Leukemia) cells = experiment: Cell cycle distribution by flow cytometry; assay type: cell-based
Description: as §1

786-0 = experiment: SRB anticancer assay, renal; assay type: cell-based, human; settings: for GI50: Homo sapiens, 786-0, 48 h
SK-OV-3 = experiment: SRB anticancer assay, ovarian; assay type: cell-based, human; settings: Homo sapiens, SK-OV-3, 48 h
NCI/ADR-RES = experiment: SRB anticancer assay, ovarian; assay type: cell-based, human; design: Log10GI50: unit not given here; settings: for GI50: Homo sapiens, NCI/ADR-RES, 48 h; for Log10GI50: present compounds
HT29 = experiment: SRB anticancer assay, colon; assay type: cell-based, human; settings: Homo sapiens, HT-29; HT29, 48 h
[2] = tested on: sixty human cancer cell lines; experiment: SRB anticancer assay, all cell lines; assay type: cell-based; settings: all the cell lines; exposure at least 48 h

Work on COc1cc(-c2cncn2-c2ccc(-c3nc4ccc(F)cc4s3)cc2)ccc1F [Compound 4c, 6-Fluoro-2-(4-(5-(4-fluoro-3-methoxyphenyl)-1H-imidazol-1-yl)phenyl)benzo[d]thiazole] yielded a GI50 (PC-3; Homo sapiens, PC-3, 48 h) of 3.47 µM, a Log10GI50 (PC-3; PC-3, present compounds) of −5.46 and a GI50 (OVCAR-5) greater than 100 µM. The “cells in G2/M phase” value [1] was 18%, the GI50 (HS 578T) was 11.5 µM and the GI50 (UACC-62) was 8.67 µM. For the same compound, the Log10GI50 (UACC-62; UACC-62, present compounds) was −5.06 log10 M, the GI50 (OVCAR-8) was 15.2 µM and the Log10GI50 (OVCAR-8; OVCAR-8, present compounds) was −4.82. It also gave a GI50 (SR) of 4.99 µM, a GI50 (SN12C) of 31.9 µM and a Log10GI50 (SN12C; present compounds) of −4.50. It also gave a GI50 (ACHN) of 29.1 µM, a Log10GI50 (ACHN; present compounds) of −4.54 and a GI50 (SNB-19) of 20.6 µM. It also gave a Log10GI50 (SNB-19; SNB-19, present compounds) greater than −4.0, a GI50 (SK-MEL-28) of 35.1 µM and a Log10GI50 (SK-MEL-28; SK-MEL-28, present compounds) of −4.45. For the same compound, the GI50 (NCI-H322M) was 36.3 µM, the GI50 (SNB-75) was 12.6 µM and the Log10GI50 (SNB-75; SNB-75, present compounds) was −4.69. For the same compound, the Log10GI50 (U251; U251, present compounds) was −4.90, the GI50 (NCI-H460) was 5.7 µM and the Log10GI50 (BT-549; BT-549, present compounds) was −4.94. It also gave a GI50 (BT-549) of 7.98 µM, a GI50 (RXF 393) of 13.5 µM and a Log10GI50 (RXF 393; RXF 393, present compounds) of −4.87. It also gave a GI50 (SF-539) greater than 100 µM, a Log10GI50 (SF-539; SF-539, present compounds) of −4.12 and a GI50 (IGROV1) of 15.4 µM. For the same compound, the GI50 (UACC-257) was 4.11 µM, the Log10GI50 (UACC-257; UACC-257, present compounds) was −5.39 log10(M) and the GI50 (K-562) was 3.93 µM. It also gave a Log10GI50 (K-562; K-562, present compounds) of −5.41, a GI50 (SK-MEL-2) of 39.7 µM and a Log10GI50 (SK-MEL-2; SK-MEL-2, present compounds) of −4.40 M. The Log10GI50 (HL-60 (TB); HL-60(TB), present compounds) was −5.60, the GI50 (HL-60 (TB); Homo sapiens, HL-60, 48 h) was 2.5 µM and the GI50 (KM12) was 6.4 µM. It also gave a GI50 (CCRF-CEM; Homo sapiens, 48 h) of 6.92 µM, a Log10GI50 (CCRF-CEM; present compounds) of −5.16 and a GI50 (NCI-H522) of 9.9 µM. The Log10GI50 (NCI-H522; NCI-H522, present compounds) was −5.00, the “cells in G2/M phase” value (K562 (Leukemia) cells) was 14% and the Log10GI50 (786-0; 786-0, present compounds) was −4.44 log10 M. It also gave a GI50 (786-0) of 36.1 µM, a GI50 (SK-OV-3) greater than 100 µM and a GI50 (NCI/ADR-RES) of 30.6 µM. The Log10GI50 (NCI/ADR-RES; NCI/ADR-RES (row head NCI/ADR-)) was −4.51, the Log10GI50 (NCI/ADR-RES; listed as head printed RES (second line of NCI/ADR-RES)) was greater than −4.0 and the GI50 (HT29) was 10.8 µM.

For COc1cc(OC)cc(-c2cncn2-c2ccc(-c3nc4cc(OC)cc(OC)c4s3)cc2)c1 [Compound 6d, 2-(4-(5-(3,5-Dimethoxyphenyl)-1H-imidazol-1-yl)phenyl)-5,7-dimethoxybenzo[d]thiazole], the GI50 (OVCAR-5) was greater than 100 µM, the “cells in G2/M phase” value [1] was 21% and the “mean graph midpoint values (MG_MID) of log10LC50, range” value [2] was −4.00. It also gave a GI50 (HS 578T) of 3.09 µM, a GI50 (UACC-62) of 4.75 µM and a GI50 (OVCAR-8) of 14.5 µM. For the same compound, the GI50 (SR) was 3.3 µM, the GI50 (SN12C) was greater than 100 µM and the GI50 (ACHN) was greater than 100 µM. It also gave a GI50 (SNB-19) greater than 100 µM, a GI50 (SK-MEL-28) greater than 100 µM and a GI50 (NCI-H322M) greater than 100 µM. For the same compound, the GI50 (SNB-75) was 3.28 µM, the GI50 (U251; Homo sapiens, U-251, U251, 48 h) was 4.76 µM and the GI50 (NCI-H460) was 4.41 µM. It also gave a GI50 (BT-549) of 5.77 µM, a GI50 (RXF 393) of 6.58 µM and a GI50 (SF-539) of 5.76 µM. For the same compound, the GI50 (IGROV1) was 5.07 µM, the GI50 (UACC-257) was greater than 100 µM and the GI50 (K-562) was 3.22 µM. For the same compound, the GI50 (SK-MEL-2) was 9.69 µM, the GI50 (KM12) was 4.52 µM and the GI50 (NCI-H522) was 2.49 µM. The “cells in G2/M phase” value (K562 (Leukemia) cells) was 12%, the GI50 (786-0) was 7.6 µM and the GI50 (SK-OV-3) was 4.69 µM. For the same compound, the GI50 (NCI/ADR-RES) was 2.58 µM.
